1 molecule from PMC10687071 (The Journal of Biological Chemistry, 2023) can be followed below.

Test [1] deals with T1, R84G mutant EAG1 channels (Mus musculus, UniProt Q60603, R84G).
T1 construct: expressed in transfected cells; host or cells: Xenopus laevis oocytes injected with cRNA
T1 sequence (Q60603 1-989 R84G): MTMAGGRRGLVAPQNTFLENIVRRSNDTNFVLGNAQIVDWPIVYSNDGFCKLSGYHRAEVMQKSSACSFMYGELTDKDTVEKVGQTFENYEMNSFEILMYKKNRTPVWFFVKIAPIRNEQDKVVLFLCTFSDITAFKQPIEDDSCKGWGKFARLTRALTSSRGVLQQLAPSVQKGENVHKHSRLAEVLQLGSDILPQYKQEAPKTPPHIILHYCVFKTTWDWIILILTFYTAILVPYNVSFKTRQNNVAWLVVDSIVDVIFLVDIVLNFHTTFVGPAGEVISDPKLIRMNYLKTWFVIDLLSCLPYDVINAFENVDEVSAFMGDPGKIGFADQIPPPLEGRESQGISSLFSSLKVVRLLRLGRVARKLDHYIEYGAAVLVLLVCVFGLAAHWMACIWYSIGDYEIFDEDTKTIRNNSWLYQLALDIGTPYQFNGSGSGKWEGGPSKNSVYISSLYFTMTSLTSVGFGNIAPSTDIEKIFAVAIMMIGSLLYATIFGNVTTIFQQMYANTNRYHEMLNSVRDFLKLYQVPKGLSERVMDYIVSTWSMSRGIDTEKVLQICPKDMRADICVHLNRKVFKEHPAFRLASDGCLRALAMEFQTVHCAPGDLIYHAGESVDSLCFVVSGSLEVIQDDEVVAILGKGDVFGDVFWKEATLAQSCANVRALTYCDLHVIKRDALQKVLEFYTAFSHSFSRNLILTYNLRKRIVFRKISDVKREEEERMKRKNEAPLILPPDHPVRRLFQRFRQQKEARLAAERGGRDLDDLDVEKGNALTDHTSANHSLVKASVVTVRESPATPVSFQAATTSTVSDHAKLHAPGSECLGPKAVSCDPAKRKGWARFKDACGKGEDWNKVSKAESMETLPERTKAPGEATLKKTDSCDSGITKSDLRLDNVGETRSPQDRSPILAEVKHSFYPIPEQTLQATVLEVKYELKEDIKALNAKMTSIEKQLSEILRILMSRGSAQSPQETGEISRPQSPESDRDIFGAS
The experiment in a line: TEVC recording, imipramine inhibition, R84G mutant. Particulars: R84G mutant EAG1 channel, +50 mV. The format is cell-based. The source says:
(§1) The cDNA encoding wild-type (WT) mouse EAG1 channels in pGH19 vector was kindly provided by G. Robertson (University of Wisconsin-Madison, Madison, WI). The mutant ΔPAS EAG1 channel in pGH19 with the deletion of the PAS domain residues 2 to 130 was generated by Bio Basic Inc and verified by DNA sequencing (Genewiz). Mutant EAG1 channels with single amino acid substitutions were generated by Genewiz and verified by DNA sequencing. cRNA was transcribed using the T7 mMessage mMachine kit (Thermo Fisher Scientific). Defolliculated Xenopus laevis oocytes were purchased from Ecocyte Bioscience or Xenopus1 and injected with the cRNA using a Nanoinject II oocyte injector (Drummond).
(§2) For EAG1 current recordings, oocytes were placed into a handmade chamber containing a bath solution for the current recording. The currents were recorded using a TEVC technique with OC-725C amplifier (Warner Instruments) and pClamp11 software (Molecular Devices). The signals were digitized using Digidata 1550 (Molecular Devices). Patch pipettes were pulled from borosilicate glass and had resistances of 0.7 to 1.5 MΩ. The recording (bath) solution contained 96 mM NaCl, 4 mM KCl, 0.1 mM CaCl2, 1.8 mM MgCl2, and 5 mM HEPES, pH 7.5. The pipette solution contained 3 M KCl. […]

The target of test [2] is T2, Y71G mutant EAG1 channels (Mus musculus, UniProt Q60603, Y71G).
T2 construct: expressed in transfected cells; host or cells: Xenopus laevis oocytes injected with cRNA
T2 sequence (Q60603 1-989 Y71G): T1 sequence (Q60603 1-989 R84G) with Y71G, G84R
The experiment in a line: TEVC recording, imipramine inhibition, Y71G mutant. The format is cell-based. Particulars: Y71G mutant EAG1 channel, +50 mV.
Text: as §1, §2

The structures appear in SMILES notation. Residue numbers refer to the chain shown, from its start.

For orientation: IC50 means the midpoint of a concentration-inhibition curve. The low end stands for greater potency in that assay, the high end for weaker potency in that assay. Turning to `CN(C)CCCN1c2ccccc2CCc2ccccc21` [imipramine], the IC50 stood at 92.6 ± 2.7 µM in test [1] and 26.7 ± 3.2 µM in test [2].
